We go through one compound from patent publication US6469028B1, “Synthesis and use of retinoid compounds having negative hormone and/or anatgonist activities” (Allergan, Inc., priority 1995, dated 2002).

SMILES strings stand for the structures.

Data set [1] concerns CaSki cells. The data set is described as follows: Example 18: proliferation of CaSki cells. It is filed as cell-based. Here is the method: EGF was added to the retinoid treated cultures to give a final concentration of 20 ng/ml. […] The media was replaced with fresh media and each of the two retinoid compounds, as appropriate, every day. Cell numbers were determined using a COULTER counter as described above.

The test system of data set [2] is MRP-8 expression in primary foreskin keratinocytes. The data set is described as follows: Example 20: MRP-8 expression in keratinocytes (RT-PCR). The format is cell-based, human. The following applies: AGN 191183 10^−7 M or AGN 193109 10^−6 M, 3 days. The source says:
Primary foreskin keratinocytes were isolated according to the procedure described by Nagpal et al. in J. Biol. Chem. 270:923 (1995) and cultured in keratinocyte growth medium (KGM) that was purchased from Clonetics. […] The mRNA was reverse transcribed into cDNA which then served as the template in a PCR amplification protocol using primers specific for either the glyceraldehyde phosphate dehydrogenase (GAPDH) housekeeping gene or MRP-8. The GAPDH primers had the sequences [NT] ID NO:6) and [NT] ID NO:7). The MRP-8 primers had the sequences [NT] ID NO:8) and [NT] ID NO:9). An aliquot from the MRP-8 amplification reaction (10 μl) was removed after every cycle of PCR amplification starting from 12 cycles and ending at 21 cycles. Similarly, an aliquot of the GAPDH amplification reaction was removed after every PCR cycle starting at 15 cycles and ending at 24 cycles. […] The staining intensity of the amplification products served as a quantitative measure of the amount of starting MRNA specific for the given primer set.

Data set [3] concerns hairless mice. Nature of the data set: Example 2: skin irritation and weight loss by oral agonist, topical antagonist. The format is in vivo. The note with it: group B: oral AGN 191183 0.26 mg/kg/d alone, 4 days. Here is the method:
Mice were simultaneously treated topically on the dorsal skin with vehicle (97.6% acetone/2.4% dimethylsulfoxide) or solutions of AGN 193109 in vehicle (6 ml/kg). Specific doses for the different treatment groups are give in Table 8. Treatments were administered daily for 4 consecutive days. Mice were weighed and graded for topical irritation daily as described in Example 1 up to and including 1 day after the last treatment. Percent body weight change is calculated by subtracting […], dividing by initial body weight, and multiplying by 100%. Topical irritation scores are calculated as described in Example 1.

Data set [4] has as its system ECE16-1 cells. Nature of the data set: Example 17: EGF dependent proliferation of ECE16-1 cells. It is filed as cell-based. The following applies: 10 nM AGN 191183 and 0 nM AGN 193109, three days. Here is the method: ECE16-1 cells were seeded at a density of 1×10^4 cells per cm^2 in complete medium containing DMEM:F12 (3:1), nonessential amino acids, 5% FBS, 5 μg/ml transferring, 2 nM of 3,3′,5 triiodothyronine (thyroid hormone or “T3”), 0.1 nNM cholera toxin, 2 mM L-glutamine, 1.8×10^−4 M adenine and 10 ng/ml EGF. Cells were allowed to attach to plates overnight and then shifted to defined medium containing DMEM:F12 (3:1), 2 mM L-glutamine, nonessential amino acids, 0.1% bovine serum albumin, 1.8×10^−4 M adenine, 5 μg/ml transferring, 2 nM T3, 50 μg/ml ascorbic acid, 100 ug/ml streptomycin, 100 units/ml penicillin and 50 μg/ml gentamicin. Defined medium (DM) was supplemented with 10 ng/ml EGF. […] After three days of treatment, cells were harvested as described by Hembree et al. in Cancer Res. 54:3160 (1994) and cell numbers determined using a COULTER counter.

Data set [5] relates to guinea pigs. The data set is described as follows: Example 5: premature epiphyseal plate closure (bone toxicity). It is filed as in vivo. The note with it: AGN 191183 0.06 mg/ml, intraperitoneal osmotic pump, 14 days, n=4. The method, then:
The osmotic pumps are designed by the manufacturer to deliver ˜5 μl of solution per hour continuously for 14 days.
The animals were euthanized by carbon dioxide asphyxiation 14 days after implantation. The left tibia was removed and placed in 10% buffered formalin. The tibias were decalcified by exposure to a formic acid/formalin solution for 3-4 days, and paraffin sections were prepared. Sections were stained with hematoxylin and eosin by standard methods. The proximal tibial epiphyseal plate was examined and scored as closed or not closed. Epiphyseal plate closure is defined for this purpose as any interruption of the continuity of the epiphyseal growth plate cartilage, i.e., replacement by bone and/or fibroblastic tissue.

Data set [6] deals with hairless mice. Nature of the data set: Example 1: skin irritation by topical agonist, topical antagonist. The note with it: group B: AGN 191183 0.025 mg/kg/d topical alone, 5 days, scored to day 8, mean±SD. It is filed as in vivo. Here is the method: More particularly skin irritation was measured on a semiquantitative scale by the daily subjective evaluation of skin flaking and abrasions. A single number, the topical irritation score, summarizes the skin irritation induced in an animal during the course of an experiment. The topical irritation score is calculated as follows. The topical irritation score is the algebraic sum of a composite flaking score and a composite abrasion score. The composite scores range from 0-9 and 0-8 for flaking and abrasions, respectively, and take into account the maximum severity, the time of onset, and the average severity of the flaking and abrasions observed.
The severity of flaking is scored on a 5-point scale and the severity of abrasions is scored on a 4-point scale, with higher scores reflecting greater severity. The maximum severity component of the composite scores would be the highest daily severity score assigned to a given animal during the course of observation.
For the time of onset component of the composite score, a score ranging from 0 to 4 is assigned as follows:
The average severity component of the composite score is the sum of the daily flaking or abrasion scores divided by the number of observation days.
To calculate the composite flaking and abrasion scores, the average severity and time of onset scores are summed and divided by 2. The result is added to the maximal severity score. The composite flaking and abrasion scores are then summed to give the overall topical irritation score. Each animal receives a topical irritation score, and the values are expressed as the mean±SD of the individual scores of a group of animals. Values are rounded to the nearest integer.
Female hairless mice [Crl:SKH1-hrBR] […] Treatments are applied to the dorsal skin in a total volume of 4 ml/kg (˜0.1 ml). Mice were observed daily and scored for flaking and abrasions up to and including 3 days after the last treatment, i.e., day 8.

Data set [7] has as its system stromelysin-1 expression in primary foreskin keratinocytes. Nature of the data set: Example 21: stromelysin-1 expression in keratinocytes (RT-PCR). The note with it: AGN 191183 10^−7 M or AGN 193109 10^−6 M, 24 hours. The format is cell-based, human. The method, then: Total RNA prepared from mock-treated and retinoid-treated keratinocytes was reverse transcribed and the resulting cDNA was PCR amplified using β-actin or stromelysin-1 oligo primers exactly as described by Nagpal et al. in J. Biol. Chem. 270:923 (1995)), the disclosure of which has been incorporated by reference. A sample (10 μl) from the PCR amplification reaction was removed after every three cycles starting from 18 cycles of PCR amplification. The sample was electrophoresed on a 2% agarose gel and detected after ethidium bromide staining.

For `C/C(=C\c1ccc(C(=O)O)cc1)c1ccc2c(c1)C(C)(C)CCC2(C)C` [AGN 191183, 4-[(E)-2-(5,6,7,8-tetrahydro-5,5,8,8-tetramethylnaphthalen-2-yl)propen-1-yl]benzoic acid, reference compound], the antiproliferative activity result in data set [1] (AGN 191183 10^−10 to 10^−6 M, EGF 20 ng/ml, three days) was “no antiproliferative activity”. The “increase in the proliferation rate” value in data set [1] (ten thousand fold increase in AGN 191183 concentration) is reported as roughly 20%. Besides, the “MRP-8 mRNA expression” value in data set [2] is recorded as “inhibited”. In addition, the figures for the “Topical Irritation Score” value in data set [3] and in data set [6] were 8 ± 1 and 8 ± 2, respectively. In addition, the “% Weight Gain or (Loss)” value in data set [3] (day 5 vs day 1, parentheses = loss) is “(21 ± 6) %”. Moreover, the EGF mediated proliferation result in data set [4] is “completely inhibited EGF mediated proliferation”. The epiphyseal plate closure result in data set [5] was “All four of the AGN 191183-treated guinea pigs showed partial or complete epiphyseal plate closure”. Further, the “stromelysin-1 mRNA expression” value in data set [7] is given as “inhibited”.
